Results on 16 molecules are retold here after PubChem BioAssay AID330 (DTP/NCI, 2004).

Several values for one entry are separate records, joined by “and”; a condition that tells them apart may be missing. Equal entries are not always repeated. Inconclusive results and toxic doses are left out.

The test system of this experiment is P388 leukemia ip, CD2F1 mice, survival T/C. Briefly: NCI In Vivo Anticancer Drug Screen. Data for tumor model P388 Leukemia (intraperitoneal) in CD2F1 (CDF1) mice. Particulars: endpoint: median survival time, higher = longer survival. An outline of the steps: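 Mice carrying the transplanted tumor received test compound or vehicle. Survival was recorded in each group, and the value is the treated-group measurement divided by that of the vehicle-treated control group.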

Setting [1] is: dose: 25.0 mg/kg/injection, schedule: Q01DX001 (ip), vehicle: Klucel (hydroxypropylcellulose) (HPC).
Where [2] appears, read: dose: 50.0 mg/kg/injection, schedule: Q01DX001 (ip), vehicle: Klucel (hydroxypropylcellulose) (HPC).
The mark [3] stands for this setting: dose: 60.0 mg/kg/injection, schedule: Q01DX005 (ip), vehicle: Klucel (hydroxypropylcellulose) (HPC).
Setting [4] is: dose: 50.0 mg/kg/injection, schedule: Q01DX005 (ip), vehicle: saline with Tween-80.
[5] abbreviates: dose: 100.0 mg/kg/injection, schedule: Q01DX005 (ip), vehicle: saline with Tween-80.
[6] abbreviates: dose: 50.0 mg/kg/injection, schedule: Q01DX009 (ip), vehicle: saline.
[7] abbreviates: dose: 100.0 mg/kg/injection, schedule: Q01DX009 (ip), vehicle: saline.
[8] abbreviates: dose: 200.0 mg/kg/injection, schedule: Q01DX009 (ip), vehicle: saline.
The mark [9] stands for this setting: dose: 100.0 mg/kg/injection, schedule: Q01DX001 (ip), vehicle: Klucel (hydroxypropylcellulose) (HPC).

Consider `CC(CC(=O)c1ccccc1)=NCCN=C(C)CC(=O)c1ccccc1.c1cc[c]([Sn][c]2ccccc2)cc1`, for which the T/C runs as follows: under setting [1], 108 % of control; under setting [2], 124 % of control.
With `Cc1ccc2nc(Nc3nc(C)cc(C)n3)[nH]c2c1`, the T/C by setting is: under setting [3], 103 % of control; (dose: 120.0 mg/kg/injection, schedule: Q01DX005 (ip), vehicle: Klucel (hydroxypropylcellulose) (HPC)) 100 % of control; (dose: 240.0 mg/kg/injection, schedule: Q01DX005 (ip), vehicle: Klucel (hydroxypropylcellulose) (HPC)) 97 % of control.
`C=Cc1cc(OC)c2c(c1)c(=O)oc1c2cc(OC)c2c(O)ccc(C3OC(C(C)O)C(O)C3O)c21` (stereo not given): the T/C runs as follows: (dose: 2.0 mg/kg/injection, schedule: Q04DX003 (ip), vehicle: DMSO) 108 % of control; (dose: 4.0 mg/kg/injection, schedule: Q04DX003 (ip), vehicle: DMSO) 114 % of control; (dose: 8.0 mg/kg/injection, schedule: Q04DX003 (ip), vehicle: DMSO) 123 % of control; (dose: 15.0 mg/kg/injection, schedule: Q01DX005 (ip), vehicle: Klucel (hydroxypropylcellulose) (HPC)) 119 % of control; (dose: 16.0 mg/kg/injection, schedule: Q04DX003 (ip), vehicle: DMSO) 155 % of control; (dose: 30.0 mg/kg/injection, schedule: Q01DX005 (ip), vehicle: Klucel (hydroxypropylcellulose) (HPC)) 107 % of control. Moreover, the T/C (dose: 32.0 mg/kg/injection, schedule: Q04DX003 (ip), vehicle: DMSO) is 155 % of control; the T/C under setting [3] is 120 % of control; the T/C (dose: 200.0 mg/kg/injection, schedule: Q01DX005 (ip), vehicle: Klucel (hydroxypropylcellulose) (HPC)) was 157 % of control; the T/C (dose: 400.0 mg/kg/injection, schedule: Q01DX005 (ip), vehicle: Klucel (hydroxypropylcellulose) (HPC)) was 98 % of control.
In the case of `COC(=O)C[CH2][Sn]([Cl])([Cl])[Cl]`, the T/C was 98 % of control (dose: 25.0 mg/kg/injection, schedule: Q04DX003 (ip), vehicle: saline); 100 % of control (dose: 50.0 mg/kg/injection, schedule: Q04DX003 (ip), vehicle: saline); 100 % of control and 96 % of control (dose: 100.0 mg/kg/injection, schedule: Q04DX003 (ip), vehicle: saline).
For `NC(=S)c1ccccc1N=Cc1ccccn1`, the T/C by setting is: (dose: 100.0 mg/kg/injection, schedule: Q04DX003 (ip), vehicle: Klucel (hydroxypropylcellulose) (HPC)) 100 % of control; (dose: 200.0 mg/kg/injection, schedule: Q04DX003 (ip), vehicle: Klucel (hydroxypropylcellulose) (HPC)) 107 % of control.
For `COC(=O)C(C)NC(=O)c1c2nc3c(C(=O)NC(C)C(=O)OC)ccc(C)c3oc-2c(C)c(=O)c1N` (stereo not given), the T/C (dose: 3.12 mg/kg/injection, schedule: Q01DX005 (ip), vehicle: distilled water + Tween-80) is 100 % of control; the T/C (dose: 3.12 mg/kg/injection, schedule: Q01DX005 (ip), vehicle: saline with Tween-80) is 98 % of control; the T/C (dose: 6.25 mg/kg/injection, schedule: Q01DX005 (ip), vehicle: distilled water + Tween-80) is 100 % of control and 102 % of control; the T/C (dose: 6.25 mg/kg/injection, schedule: Q01DX005 (ip), vehicle: saline with Tween-80) is 97 % of control; the T/C (dose: 12.5 mg/kg/injection, schedule: Q01DX005 (ip), vehicle: distilled water + Tween-80) was 96 % of control; the T/C (dose: 12.5 mg/kg/injection, schedule: Q01DX005 (ip), vehicle: saline with Tween-80) is 87 % of control and 92 % of control. Also, the T/C reads like this: (dose: 25.0 mg/kg/injection, schedule: Q01DX005 (ip), vehicle: distilled water + Tween-80) 89 % of control and 94 % of control; (dose: 50.0 mg/kg/injection, schedule: Q01DX005 (ip), vehicle: distilled water + Tween-80) 90 % of control; under setting [4], 89 % of control; under setting [5], 89 % of control; (dose: 200.0 mg/kg/injection, schedule: Q01DX005 (ip), vehicle: saline with Tween-80) 92 % of control.
For `C=CCC(C)(C)CC=C1C2CCC1N(C(=O)OC)N2C(=O)OC`, the T/C (dose: 25.0 mg/kg/injection, schedule: Q01DX005 (ip), vehicle: saline with Tween-80) was 107 % of control; the T/C under setting [4] was 99 % of control; the T/C under setting [5] is 112 % of control.
With `CCOC(=O)C(CCC(OCC)OCC)C(=O)OCC`, the T/C under setting [6] was 103 % of control, the T/C under setting [7] was 102 % of control and the T/C under setting [8] is 101 % of control.
On to `N#Cc1nnc2cccc(Cl)n12`, for which the T/C under setting [1] is 96 % of control, the T/C under setting [2] is 95 % of control and the T/C under setting [9] was 97 % of control.
`O=C(CNC(=O)Nc1ccc(Cl)c(Cl)c1)N/N=C/c1ccc2c(c1)OCO2`: the T/C (dose: 50.0 mg/kg/injection, schedule: Q01DX009 (ip), vehicle: saline with Tween-80) was 91 % of control; the T/C (dose: 100.0 mg/kg/injection, schedule: Q01DX009 (ip), vehicle: saline with Tween-80) is 90 % of control; the T/C (dose: 200.0 mg/kg/injection, schedule: Q01DX009 (ip), vehicle: saline with Tween-80) is 89 % of control.
`COc1ccc2cc3n(c(=Nc4ccccc4)c2c1OC)CCc1cc2c(cc1-3)OCO2`: the T/C runs as follows: (dose: 0.63 mg/kg/injection, schedule: Q01DX009 (ip), vehicle: water) 97 % of control; (dose: 1.25 mg/kg/injection, schedule: Q01DX009 (ip), vehicle: water) 93 % of control; (dose: 2.5 mg/kg/injection, schedule: Q01DX009 (ip), vehicle: water) 101 % of control; (dose: 5.0 mg/kg/injection, schedule: Q01DX009 (ip), vehicle: water) 124 % of control; (dose: 10.0 mg/kg/injection, schedule: Q01DX009 (ip), vehicle: water) 99 % of control; (dose: 20.0 mg/kg/injection, schedule: Q01DX009 (ip), vehicle: water) 101 % of control.
Regarding `C[N+]1(C)C2CCC1CC(=O)C2`, the T/C runs as follows: (dose: 12.5 mg/kg/injection, schedule: Q01DX009 (ip), vehicle: suspension in saline) 107 % of control; (dose: 25.0 mg/kg/injection, schedule: Q01DX009 (ip), vehicle: suspension in saline) 107 % of control.
For the molecule `C=C(CCCCC)C(=O)/C=C/c1ccc(Cl)c(Cl)c1`, the T/C is, setting by setting: (dose: 6.25 mg/kg/injection, schedule: Q01DX009 (ip), vehicle: other) 97 % of control; (dose: 12.5 mg/kg/injection, schedule: Q01DX009 (ip), vehicle: other) 107 % of control; (dose: 25.0 mg/kg/injection, schedule: Q01DX009 (ip), vehicle: other) 108 % of control; (dose: 50.0 mg/kg/injection, schedule: Q01DX009 (ip), vehicle: other) 109 % of control.
As to `Nc1cc2c(=O)c3cc(Cl)cc(Cl)c3[nH]c2c2c1C(=O)c1ccccc1C2=O`, the T/C is 99 % of control (dose: 50.0 mg/kg/injection, schedule: Q01DX009 (ip), vehicle: Klucel (hydroxypropylcellulose) (HPC)); 105 % of control (dose: 100.0 mg/kg/injection, schedule: Q01DX009 (ip), vehicle: Klucel (hydroxypropylcellulose) (HPC)); 100 % of control (dose: 200.0 mg/kg/injection, schedule: Q01DX009 (ip), vehicle: Klucel (hydroxypropylcellulose) (HPC)).
For the molecule `COc1ccc2c(c1)C1(C)C(=O)OC(C2=O)C1C` (stereo not given), the T/C was 104 % of control under setting [2]; 99 % of control under setting [9]; 114 % of control (dose: 200.0 mg/kg/injection, schedule: Q01DX001 (ip), vehicle: Klucel (hydroxypropylcellulose) (HPC)).
Take `CN(C)CCN(C)C(=N)N`: the T/C (dose: 25.0 mg/kg/injection, schedule: Q01DX009 (ip), vehicle: saline) is 100 % of control and 105 % of control; the T/C under setting [6] is 104 % of control; the T/C under setting [7] was 91 % of control and 96 % of control; the T/C under setting [8] was 88 % of control and 94 % of control.
